Legend:
[1] = test system: normotensive and hypertensive rats; assay: antihypertensive activity in conscious cannulated rats, i.v. administration; type: in vivo
Protocol: (§1) Cannulas are run intradermally so as to be externalized in the dorso-sacral area of either side and kept in place by wound clips. The rats are allowed to regain consciousness after being placed in a small animal restrainer. The arterial cannula is connected to a pressure transducer for constant blood pressure and heart rate monitoring. Drugs are administered either orally via gavage or i.v. via the femoral vein cannula at a rate of 0.06 ml./minute.
(§2) The above test is conducted on both normotensive and hypertensive rats. DOCA Salt hypertensive rats are prepared from male uninephrectomized Sprague-Dawley rats. The rats, approximately six weeks of age, are lightly anesthetized with ether and subcutaneously implanted with a 25 mg. deoxycorticosterone acetate pellet in the left dorso-sacral area. Six days later a second pellet is implanted in the right dorso-sacral area. These rats are fed a normal laboratory diet, but are given 1% saline solution to drink in place of water. The rats are kept on the saline drinking water for 22-24 days.
The following table sets forth the effect of 6-chloro-2,3,4,5-tetrahydro-3-methyl-1 H-3-benzazepine on blood pressure after i.v. administration to both normotensive and hypertensive rats.

[2] = test system: DOCA-salt hypertensive rat; assay: antihypertensive activity in DOCA-salt hypertensive rat, oral administration; type: in vivo
Protocol: as §1, §2
The effect of the oral administration of 6-chloro-2,3,4,5-tetrahydro-3-methyl-1H-3-benzazepine on blood pressure in the DOCA-salt hypertensive rat was also determined.

[3] = test system: rabbit intraocular pressure; assay: normal rabbit intraocular pressure determination, instillation into the eye; type: in vivo; details: instilled into the rabbit eye; at one hour; relative to the untreated eye
Protocol: The measurement of intraocular pressure depends on subjecting the eye to a force that indents or flattens it. Either the effect of a particular force or the force for a given effect is measured. The specific procedure employed for the compounds of this invention is a normal rabbit intraocular pressure determination. A solution of 0.5% proparacaine hydrochloride diluted 1:10 with physiological saline is instilled into the eye of a rabbit. The lids are gently massaged over the cornea to insure good distribution of the solution. The eye is exposed by separating the lids and the tip of a probe is slowly placed on the cornea at the point where the curvature of the cornea is the greatest, i.e., on the optic axis. Employing an Alcon Applanation Pneumatonograph, the intraocular pressure is determined in each eye until a stable reading is obtained. West, C., Capelta, J. and Kaufman, H., Am. J. Ophthalmol. 74:505 (1972).
Nine rabbits are used in each study, three animals for each dose in most circumstances. […] Immediately following the initial reading, the formulations to be tested, comprising concentrations of 0.01 to 10% of active ingredient, are instilled and pressure readings are taken at 0.5, 1, 2, 3, 4, and 6 hours post-instillation. The intraocular pressure is determined from the value recorded on the pneumotonograph chart paper. A mean intraocular pressure value is calculated at each time point. […]

[4] = test system: conscious normotensive rabbits; assay: rabbit intraocular pressure determination, compound given systemically (ear vein infusion); type: in vivo; details: given systemically to rabbits; result in words
alpha2 adrenoceptor = assay: prejunctional alpha2 antagonist activity, isolated superfused guinea pig left atrium (shift of the clonidine concentration-response curve); type: cell-based
Protocol: Briefly, the heart is removed from a pentobarbital-anesthetized male guinea pig. The left atrium is removed, dissected free of extraneous tissue and mounted in a 2 ml. superfusion chamber. The tissue is paced at 60 pulse/minute and the sympathetic nerves excited at 6 minute intervals by field stimulation. The response to nerve stimulation is measured as the difference in contractile force between the basal contraction and peak contraction following a nerve stimulation. A concentration-response curve for clonidine (alpha2 agonist) is prepared by administering an increasing concentration of clonidine following each successive stimulation. The tissue is then superfused with the alpha2 antagonist to be tested for thirty minutes and the clonidine concentration- effect curve was repeated in the presence of antagonist. The receptor dissociation constant of the antagonist (KB) is defined as the antagonist concentration required to shift the log concentration-response curve of the agonist to the right by a factor of 2.

Row | Structure (SMILES) | Diastolic Blood Pressure Decrease BP ([1]; DOCA Salt Hypertensive rats, n = 4, 0.5 mg/kg I.V., Pre Drug 135 ± 5 MMHg) [MMHg] | Diastolic Blood Pressure Decrease BP ([1]; DOCA Salt Hypertensive rats, n = 4, 1.0 mg/kg I.V., Pre Drug 135 ± 5 MMHg) [MMHg] | Diastolic Blood Pressure Decrease BP ([1]; Normotensive (control) (Sprague-Dawley) rats, n = 4, 0.5 mg/kg I.V., Pre Drug 95 ± 7 MMHg) [MMHg] | Diastolic Blood Pressure Decrease BP ([1]; Normotensive (control) (Sprague-Dawley) rats, n = 4, 1.0 mg/kg I.V., Pre Drug 95 ± 7 MMHg) [MMHg] | Diastolic Blood Pressure Decrease BP ([1]; Normotensive (control) (Wistar-Kyoto) rats, n = 4, 0.5 mg/kg I.V., Pre Drug 115 ± 3 MMHg) [MMHg] | Diastolic Blood Pressure Decrease BP ([1]; Normotensive (control) (Wistar-Kyoto) rats, n = 4, 1.0 mg/kg I.V., Pre Drug 115 ± 3 MMHg) [MMHg] | Diastolic Blood Pressure Decrease BP ([1]; Spontaneously Hypertensive rats, n = 7, 0.5 mg/kg I.V., Pre Drug 167 ± 3 MMHg) [MMHg] | Diastolic Blood Pressure Decrease BP ([1]; Spontaneously Hypertensive rats, n = 7, 1.0 mg/kg I.V., Pre Drug 167 ± 3 MMHg) [MMHg] | Δ BP ([2]; 2 mg/kg PO) [MM Hg] | Mean Arterial Pressure Post-Drug ([2]; 2 mg/kg PO, Pre-Drug 148 ± 11) | Δ BP ([2]; 5 mg/kg PO) [MM Hg] | Mean Arterial Pressure Post-Drug ([2]; 5 mg/kg PO, Pre-Drug 160 ± 7) | Δ BP ([2]; 10 mg/kg PO) [MM Hg] | Mean Arterial Pressure Post-Drug ([2]; 10 mg/kg PO, Pre-Drug 167 ± 8) | decrease of intraocular pressure [3] | effect on systemic blood pressure [4] | alpha2 antagonist activity relative to the 6-chloro derivative (alpha2 adrenoceptor; comparison of KB values) | Kb (alpha2 adrenoceptor; isolated perfused guinea pig left atrium, antagonist concentration shifting the clonidine curve to the right by a factor of 2) [nM]
1 | CN1CCc2cccc(Cl)c2CC1 [6-chloro-2,3,4,5-tetrahydro-3-methyl-1H-3-benzazepine] | 27 ± 3 | 33 ± 4 | 6 ± 2 | 13 ± 1 | 7 ± 2 | 10 ± 2 | 33 ± 7 | 46 ± 2 | 17 ± 3 | 131 ± 12 | 34 ± 4 | 127 ± 5 | 68 ± 8 | 99 ± 4 | 3.5 mm of mercury | no significant effect | – | –
2 | CN1CCc2ccc(Cl)cc2CC1 [7-chloro-2,3,4,5-tetrahydro-3-methyl-1H-3-benzazepine] | – | – | – | – | – | – | – | – | – | – | – | – | – | – | – | – | about one tenth | 150
